According to patent US11332459B2 (TEIJIN PHARMA LIMITED, priority 2017, dated 2022):
Where a name gives a salt, the structure may show the parent alone.

Biological target: T1, human TRPC6 (Homo sapiens, UniProt Q9Y210)
T1 construct: expressed in transfected cells
T1 sequence (Q9Y210 1-931): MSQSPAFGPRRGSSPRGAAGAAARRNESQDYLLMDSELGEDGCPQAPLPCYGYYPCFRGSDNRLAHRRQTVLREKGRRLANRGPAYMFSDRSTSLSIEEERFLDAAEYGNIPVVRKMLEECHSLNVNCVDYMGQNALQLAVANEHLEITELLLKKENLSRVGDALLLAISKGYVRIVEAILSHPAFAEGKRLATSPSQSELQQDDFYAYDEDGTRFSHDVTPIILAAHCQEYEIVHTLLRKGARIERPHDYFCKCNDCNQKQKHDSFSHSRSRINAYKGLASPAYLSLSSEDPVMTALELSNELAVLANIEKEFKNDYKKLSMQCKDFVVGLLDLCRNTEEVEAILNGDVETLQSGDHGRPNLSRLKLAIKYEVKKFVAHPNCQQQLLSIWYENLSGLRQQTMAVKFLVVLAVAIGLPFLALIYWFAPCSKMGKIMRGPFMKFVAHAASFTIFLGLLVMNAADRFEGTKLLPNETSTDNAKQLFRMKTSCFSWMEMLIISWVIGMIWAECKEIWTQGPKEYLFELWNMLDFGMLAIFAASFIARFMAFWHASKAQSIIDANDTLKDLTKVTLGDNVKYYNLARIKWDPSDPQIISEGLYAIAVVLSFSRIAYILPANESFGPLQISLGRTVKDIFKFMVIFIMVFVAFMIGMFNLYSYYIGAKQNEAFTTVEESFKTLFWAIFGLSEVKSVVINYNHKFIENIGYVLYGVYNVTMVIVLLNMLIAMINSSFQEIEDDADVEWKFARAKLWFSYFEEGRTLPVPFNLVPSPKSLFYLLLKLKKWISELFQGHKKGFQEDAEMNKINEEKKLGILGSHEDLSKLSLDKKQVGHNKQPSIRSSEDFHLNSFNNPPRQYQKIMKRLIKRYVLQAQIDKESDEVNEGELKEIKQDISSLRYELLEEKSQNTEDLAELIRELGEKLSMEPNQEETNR
Assay: TRPC6 calcium flux assay (FLIPR, OAG-stimulated calcium influx)
Type: cell-based
Details: HEK293 cells stably transfected with human TRPC6, read-out: hTRPC6 Potency
Method in brief: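 HEK293 cells stably expressing human TRPC6, loaded with calcium dye 90–120 min at RT, then given compound for 25 min before OAG (50 uM final, 0.5% DMSO) in HEPES buffer pH 7.2 with 2 mM CaCl2. Background-subtracted FLIPR peak over 180 s normalized to OAG vs buffer; IC50 from dose plot.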

Compound	IC50 [nM]
CC(C)C1CCN1C(=O)Cn1c(N2CC[C@@H](F)[C@H](N)C2)nc2cc(F)c(F)cc21 (stereo partly drawn) [Example 625, 2-(2-((3R,4R)-3-amino-4-fluoropiperidin-1-yl)-5,6-difluoro-1H-benzo[d]imidazol-1-yl)-1-(2-isopropylazetidin-1-yl)ethanone]	105
CNC(=O)C1CCCN(C(=O)Cn2c(N3CC[C@@H](F)[C@H](N)C3)nc3cc(F)c(F)cc32)C1 (stereo partly drawn) [Example 654, 1-(2-(2-((3R,4R)-3-amino-4-fluoropiperidin-1-yl)-5,6-difluoro-1H-benzo[d]imidazol-1-yl)acetyl)-N-methylpiperidine-3-carboxamide]	> 3750
N[C@@H]1CN(c2nc3cc(C(F)(F)F)ccc3n2CC(=O)N2CCOCC2)CC[C@@H]1F [Example 478, 2-(2-((3R,4S)-3-amino-4-fluoropiperidin-1-yl)-5-(trifluoromethyl)-1H-benzo[d]imidazol-1-yl)-1-morpholinoethan-1-one]	1050
CC(N(C)C(=O)Cn1c(N2CC[C@@H](F)[C@H](N)C2)nc2cc(F)c(F)cc21)C(F)(F)F (mixture of isomers) [Example 614, 2-(2-((3R,4R)-3-amino-4-fluoropiperidin-1-yl)-5,6-difluoro-1H-benzo[d]imidazol-1-yl)-N-methyl-N-(1,1,1-trifluoropropan-2-yl)acetamide]	24.8
N[C@@H]1CN(c2nc3cc(F)c(F)cc3n2[C@H]2CCN(c3ccc(Cl)cc3)C2=O)CC[C@H]1F [Example 247, (S)-3-(2-((3R,4R)-3-amino-4-fluoropiperidin-1-yl)-5,6-difluoro-1H-benzo[d]imidazol-1-yl)-1-(4-chlorophenyl)pyrrolidin-2-one]	75.4
C[C@H](C(=O)N(C)C)n1c(N2CC[C@@H](F)[C@H](N)C2)nc2cc(F)c(F)cc21 [Example 279]	7.16
N[C@@H]1CN(c2nc3cc(F)c(F)cc3n2CC(=O)N2CCn3ncnc3C2)CC[C@H]1F [Example 646, 2-(2-((3R,4R)-3-amino-4-fluoropiperidin-1-yl)-5,6-difluoro-1H-benzo[d]imidazol-1-yl)-1-(5,6-dihydro-[1,2,4]triazolo[1,5-a]pyrazin-7(8H)-yl)ethanone]	2310
CN[C@H]1CCCN(c2nc3ccccc3n2Cc2ccc(F)cn2)C1 [Example 253, (3S)-1-(1-((5-fluoro-2-pyridinyl)methyl)-1H-benzimidazol-2-yl)-N-methyl-3-piperidinamine]	406
CC(CC#N)N(C)C(=O)Cn1c(N2CC[C@@H](F)[C@H](N)C2)nc2cc(F)c(F)cc21 (mixture of isomers) [Example 612, 2-(2-((3R,4R)-3-amino-4-fluoropiperidin-1-yl)-5,6-difluoro-1H-benzo[d]imidazol-1-yl)-N-(1-cyanopropan-2-yl)-N-methylacetamide]	22.4
CCC1COCCN1C(=O)Cn1c(N2CC[C@@H](F)[C@H](N)C2)nc2ccc(F)cc21 (stereo partly drawn) [Example 684, 2-(2-((3R,4R)-3-amino-4-fluoropiperidin-1-yl)-6-fluoro-1H-benzo[d]imidazol-1-yl)-1-(3-ethylmorpholino)ethan-1-one]	524
N[C@@H]1CN(c2nc3c(F)cc(F)cc3n2Cc2nnc(C(F)F)s2)CC[C@H]1F [Example 557, (3R,4R)-1-(1-((5-(difluoromethyl)-1,3,4-thiadiazol-2-yl)methyl)-4,6-difluoro-1H-benzo[d]imidazol-2-yl)-4-fluoropiperidin-3-amine]	12.8
C[C@@H](c1cc(F)ccc1F)n1c(N2CC[C@@H](F)[C@H](N)C2)nc2cc(F)c(F)cc21 [Example 335, (3R,4R)-1-(1-((1S)-1-(2,5-difluorophenyl)ethyl)-5,6-difluoro-1H-benzimidazol-2-yl)-4-fluoro-3-piperidinamine]	> 3750

Further lines, results first:

IC50 [nM]	Compound
7.55	N[C@@H]1CN(c2nc3ccccc3n2Cc2ccc(Cl)cn2)CCC1(F)F [Example 85, (R)-1-(1-((5-chloropyridin-2-yl)methyl)-1H-benzo[d]imidazol-2-yl)-4,4-difluoropiperidin-3-amine hydrochloride]
> 3750	N#Cc1ccc(Cn2c(N3CCC[C@]4(CCCCN4)C3)nc3ccccc32)nc1 [Example 129, 6-((2-((6R)-1,8-diazaspiro[5.5]undecan-8-yl)-1H-benzimidazol-1-yl)methyl)-3-pyridinecarbonitrile]
> 3750	N#Cc1ccc(Cn2c(N3CCC[C@@](N)(C(N)=O)C3)nc3ccccc32)nc1 [Example 102, (S)-3-amino-1-(1-((5-cyanopyridin-2-yl)methyl)-1H-benzo[d]imidazol-2-yl)piperidine-3-carboxamide]
10.5	COc1cccc2c1nc(N1CCC(F)(F)[C@H](N)C1)n2Cc1ccc(C#N)cc1 [Example 410, (R)-4-((2-(3-amino-4,4-difluoropiperidin-1-yl)-4-methoxy-1H-benzo[d]imidazol-1-yl)methyl)benzonitrile]
598	N#Cc1ccc2nc(N3CC[C@H](F)[C@H](N)C3)n(Cc3ncc(Cl)cn3)c2c1 [Example 203, 2-((3R,4S)-3-amino-4-fluoropiperidin-1-yl)-1-((5-chloropyrimidin-2-yl)methyl)-1H-benzo[d]imidazole-6-carbonitrile]
0.741	N#Cc1ccc(Cn2c(N3CC[C@@H](F)[C@H](N)C3)nc3cc(OC(F)(F)F)c(Cl)cc32)nc1 [Example 124, 6-((2-((3R,4R)-3-amino-4-fluoro-1-piperidinyl)-6-chloro-5-(trifluoromethoxy)-1H-benzimidazol-1-yl)methyl)-3-pyridinecarbonitrile]
1.59	N#Cc1ccc2nc(N3CC[C@@H](F)[C@H](N)C3)n(Cc3ncc(Cl)cn3)c2c1 [Example 187, 2-((3R,4R)-3-amino-4-fluoropiperidin-1-yl)-1-((5-chloropyrimidin-2-yl)methyl)-1H-benzo[d]imidazole-6-carbonitrile]
4.61	N[C@@H]1CN(c2nc3cc(F)ccc3n2Cc2ncc(Cl)cn2)CC[C@@H]1F [Example 40, (3R,4S)-1-(1-((5-chloropyrimidin-2-yl)methyl)-5-fluoro-1H-benzo[d]imidazol-2-yl)-4-fluoropiperidin-3-amine]
0.952	Cc1cc2nc(N3CC[C@@H](F)[C@H](N)C3)n(Cc3ccc(C#N)cn3)c2cc1C [Example 44]
0.924	N#Cc1ccc(Cn2c(N3CC[C@@H](F)[C@H](N)C3)nc3c(Cl)cccc32)cc1 [Example 408, 4-((2-((3R,4R)-3-amino-4-fluoropiperidin-1-yl)-4-chloro-1H-benzo[d]imidazol-1-yl)methyl)benzonitrile]
14.2	N#Cc1ccc(Cn2c(N3CCC(F)(F)[C@H](N)C3)nc3ccc(C#N)cc32)cc1 [Example 160, 2-((3R)-3-amino-4,4-difluoro-1-piperidinyl)-1-(4-cyanobenzyl)-1H-benzimidazole-6-carbonitrile]
1540	N#Cc1ccc(Cn2c(N3CC[C@](O)(CN)C3)nc3ccccc32)cc1 [Example 177, (S)-4-((2-(3-(aminomethyl)-3-hydroxypyrrolidin-1-yl)-1H-benzo[d]imidazol-1-yl)methyl)benzonitrile 2,2,2-trifluoroacetate]
73.9	CN[C@H]1CCCN(c2nc3ccccc3n2Cc2ccc(Cl)cn2)C1 [Example 254, (3S)-1-(1-((5-chloro-2-pyridinyl)methyl)-1H-benzimidazol-2-yl)-N-methyl-3-piperidinamine]
0.907	C[C@@H]1CCN(c2nc3ccccc3n2Cc2ccc(C#N)cc2)C[C@H]1N [Example 181, 4-((2-((3S,4R)-3-amino-4-methylpiperidin-1-yl)-1H-benzo[d]imidazol-1-yl)methyl)benzonitrile 2,2,2-trifluoroacetate]
0.906	N#Cc1ccc(Cn2c(N3CC[C@H](F)[C@H](N)C3)nc3cc(F)c(F)cc32)nc1 [Example 83, 6-((2-((3R,4S)-3-amino-4-fluoropiperidin-1-yl)-5,6-difluoro-1H-benzo[d]imidazol-1-yl)methyl)nicotinonitrile hydrochloride]
